US12497406B2, “Microbiocidal derivatives” (SYNGENTA CROP PROTECTION AG, priority 2019, dated 2025)

Columns and labels:
[1] = tested on: Puccinia recondita f. sp. tritici; assay: Puccinia recondita f. sp. tritici / wheat / leaf disc preventative (brown rust); format: in vivo; conditions: foliar, wheat leaf segments cv. Kanzler, inoculated 1 day after application, compared to untreated control
Protocol: Example B8. Puccinia recondita f. Sp. tritici/Wheat/Leaf Disc Preventative (Brown Rust) Wheat leaf segments cv. Kanzler are placed on agar in multiwell plates (24-well format) and sprayed with the formulated test compound diluted in water. The leaf disks are inoculated with a spore suspension of the fungus 1 day after application. The inoculated leaf segments are incubated at 19° C. and 75% rh under a light regime of 12 h light/12 h darkness in a climate cabinet and the activity of a compound is assessed as percent disease control compared to untreated when an appropriate level of disease damage appears in untreated check leaf segments (7-9 days after application). […] […]-25, and P-26.

[2] = tested on: Glomerella lagenarium (Colletotrichum lagenarium); assay: Glomerella lagenarium (Colletotrichum lagenarium) / liquid culture (anthracnose); format: cell-based; conditions: Colletotrichum orbiculare, liquid culture (PDB), growth inhibition photometrically 3-4 days after application, compared to untreated control
Protocol: Example B3. Glomerella lagenarium (Colletotrichum lagenarium)/Liquid Culture (Anthracnose) Conidia of the fungus from cryogenic storage are directly mixed into nutrient broth (PDB potato dextrose broth). After placing a (DMSO) solution of test compound into a microtiter plate (96-well format), the nutrient broth containing the fungal spores is added. The test plates are incubated at 24° C. and the inhibition of growth is measured photometrically 3-4 days after application. […] […]-25, and P-26.

[3] = tested on: Mycosphaerella graminicola (Septoria tritici); assay: Mycosphaerella graminicola (Septoria tritici) / liquid culture (Septoria blotch); format: cell-based; conditions: Zymoseptoria tritici, liquid culture (PDB), growth inhibition photometrically 4-5 days after application, compared to untreated control
Protocol: (§1) Example B11. Mycosphaerella graminicola (Septoria tritici)/Liquid Culture (Septoria Blotch) Conidia of the fungus from cryogenic storage are directly mixed into nutrient broth (PDB potato dextrose broth). After placing a (DMSO) solution of test compound into a microtiter plate (96-well format), the nutrient broth containing the fungal spores is added. The test plates are incubated at 24° C. and the inhibition of growth is determined photometrically 4-5 days after application.

[4] = tested on: Mycosphaerella arachidis (Cercospora arachidicola); assay: Mycosphaerella arachidis (Cercospora arachidicola) / liquid culture (early leaf spot); format: cell-based; conditions: liquid culture (PDB), growth inhibition photometrically 4-5 days after application, compared to untreated control
Protocol: as §1, with “B7.” for “B11.”, “arachidis (Cercospora arachidicola)/Liquid” for “graminicola (Septoria tritici)/Liquid”, “(Early Leaf Spot)” for “(Septoria Blotch)”, “application. […] […]-22, and P-25.” for “application.”

[5] = tested on: Monographella nivalis (Microdochium nivale); assay: Monographella nivalis (Microdochium nivale) / liquid culture (foot rot cereals); format: cell-based; conditions: liquid culture (PDB), growth inhibition photometrically 4-5 days after application, compared to untreated control
Protocol: as §1, with “B6. Monographella nivalis (Microdochium nivale)/Liquid” for “B11. Mycosphaerella graminicola (Septoria tritici)/Liquid”, “(Foot Rot Cereals)” for “(Septoria Blotch)”, “application. […] […]-25, and P-26.” for “application.”

[6] = tested on: Magnaporthe grisea (Pyricularia oryzae); assay: whole plant or invertebrate; format: in vivo; conditions: foliar, read-out: control of Magnaporthe grisea
Pyrenophora teres = Pyrenophora teres / barley / leaf disc preventative (net blotch); format: in vivo; conditions: foliar, barley leaf segments cv. Hasso, inoculated 2 days after application, compared to untreated control
Protocol: Example B10. Pyrenophora teres/Barley/Leaf Disc Preventative (Net Blotch) Barley leaf segments cv. Hasso are placed on agar in a multiwell plate (24-well format) and sprayed with the formulated test compound diluted in water. The leaf segments are inoculated with a spore suspension of the fungus 2 days after application. The inoculated leaf segments are incubated at 20° C. and 65% rh under a light regime of 12 h light/12 h darkness in a climate cabinet and the activity of a compound is assessed as disease control compared to untreated when an appropriate level of disease damage appears in untreated check leaf segments (5-7 days after application). […] […]-25, and P-26.

Alternaria solani = Alternaria solani / tomato / leaf disc (early blight); format: in vivo; conditions: foliar, tomato leaf disks cv. Baby, inoculated 2 days after application, compared to untreated control
Protocol: Example B1. Alternaria solani/Tomato/Leaf Disc (Early Blight) Tomato leaf disks cv. Baby are placed on agar in multiwell plates (24-well format) and sprayed with the formulated test compound diluted in water. The leaf disks are inoculated with a spore suspension of the fungus 2 days after application. The inoculated leaf disks are incubated at 23° C./21° C. […] […]-24, and P-25.

CC1(C)CCC1NC(=O)c1nc(Nc2cc(F)cc(F)c2)cc2c1OCO2 (centres unmarked) [Compound P-11, 6-(3,5-difluoroanilino)-N-(2,2-dimethylcyclobutyl)-[1,3]dioxolo[4,5-c]pyridine-4-carboxamide]
≥ 80%: pest or weed control at 200 ppm [1] | inhibition of growth at 20 ppm [2] | inhibition of growth at 20 ppm [3] | inhibition of growth at 20 ppm [4] | inhibition of growth at 20 ppm [5]

CC1Oc2cc(Nc3ccccc3)nc(C(=O)NCC(C)(C)C)c2O1 (centres unmarked) [Compound P-1, 6-anilino-N-(2,2-dimethylpropyl)-2-methyl-[1,3]dioxolo[4,5-c]pyridine-4-carboxamide]
≥ 80%: inhibition of growth at 20 ppm [2]

CCC(C)(C)NC(=O)c1nc(Nc2cc(F)cc(F)c2)cc2c1OCO2 [Compound P-18, 6-(3,5-difluoroanilino)-N-(1,1-dimethylpropyl)-[1,3]dioxolo[4,5-c]pyridine-4-carboxamide]
≥ 80%: pest or weed control at 200 ppm [1] | inhibition of growth at 20 ppm [2] | inhibition of growth at 20 ppm [3] | pest or weed control at 200 ppm [6] | inhibition of growth at 20 ppm [4] | inhibition of growth at 20 ppm [5] | pest or weed control at 200 ppm (Pyrenophora teres)

CC1(C)CCC1NC(=O)c1nc(Nc2ccccc2)cc2c1OCO2 (centres unmarked) [Compound P-9, 6-anilino-N-(2,2-dimethylcyclobutyl)-[1,3]dioxolo[4,5-c]pyridine-4-carboxamide]
≥ 80%: pest or weed control at 200 ppm (Alternaria solani) | inhibition of growth at 20 ppm [2] | inhibition of growth at 20 ppm [3] | inhibition of growth at 20 ppm [4] | inhibition of growth at 20 ppm [5] | pest or weed control at 200 ppm (Pyrenophora teres)

CC(C)(NC(=O)c1nc(Nc2cc(F)cc(F)c2)cc2c1OCO2)c1ccccc1 [Compound P-20, 6-(3,5-difluoroanilino)-N-(1-methyl-1-phenyl-ethyl)-[1,3]dioxolo[4,5-c]pyridine-4-carboxamide]
≥ 80%: inhibition of growth at 20 ppm [2] | inhibition of growth at 20 ppm [3] | inhibition of growth at 20 ppm [5]

CC1(NC(=O)c2nc(Nc3cc(F)cc(F)c3)cc3c2OCO3)CCOC1 (centres unmarked) [Compound P-23, 6-(3,5-difluoroanilino)-N-(3-methyltetrahydrofuran-3-yl)-[1,3]dioxolo[4,5-c]pyridine-4-carboxamide]
≥ 80%: pest or weed control at 200 ppm (Alternaria solani) | inhibition of growth at 20 ppm [2] | inhibition of growth at 20 ppm [3] | inhibition of growth at 20 ppm [5] | pest or weed control at 200 ppm (Pyrenophora teres)

CC(C)CCNC(=O)c1nc(Nc2cc(F)nc(F)c2)cc2c1OCO2 [Compound P-12, 6-[(2,6-difluoro-4-pyridyl)amino]-N-isopentyl-[1,3]dioxolo[4,5-c]pyridine-4-carboxamide]
≥ 80%: pest or weed control at 200 ppm [1] | inhibition of growth at 20 ppm [3] | inhibition of growth at 20 ppm [5]

CC(C)(C)CNC(=O)c1nc(Nc2cccc(F)c2)cc2c1OCO2 [Compound P-15, N-(2,2-dimethylpropyl)-6-(3-fluoroanilino)-[1,3]dioxolo[4,5-c]pyridine-4-carboxamide]
≥ 80%: inhibition of growth at 20 ppm [2] | inhibition of growth at 20 ppm [3] | pest or weed control at 200 ppm [6] | inhibition of growth at 20 ppm [4] | inhibition of growth at 20 ppm [5] | pest or weed control at 200 ppm (Pyrenophora teres)

CC1Oc2cc(Nc3cc(F)cc(F)c3)nc(C(=O)NCC(C)(C)C)c2O1 (centres unmarked) [Compound P-3, 6-(3,5-difluoroanilino)-N-(2,2-dimethylpropyl)-2-methyl-[1,3]dioxolo[4,5-c]pyridine-4-carboxamide]
≥ 80%: inhibition of growth at 20 ppm [2]

CC(C)(C)CNC(=O)c1nc(Nc2cc(F)cc(F)c2)cc2c1OCO2 [Compound P-5, 6-(3,5-difluoroanilino)-N-(2,2-dimethylpropyl)-[1,3]dioxolo[4,5-c]pyridine-4-carboxamide]
≥ 80%: inhibition of growth at 20 ppm [2] | inhibition of growth at 20 ppm [3] | pest or weed control at 200 ppm [6] | inhibition of growth at 20 ppm [5] | pest or weed control at 200 ppm (Pyrenophora teres)

CC1(NC(=O)c2nc(Nc3cc(F)cc(F)c3)cc3c2OCO3)COC1 [Compound P-24, 6-(3,5-difluoroanilino)-N-(3-methyloxetan-3-yl)-[1,3]dioxolo[4,5-c]pyridine-4-carboxamide]
≥ 80%: pest or weed control at 200 ppm (Alternaria solani) | inhibition of growth at 20 ppm [2] | inhibition of growth at 20 ppm [3] | pest or weed control at 200 ppm [6] | inhibition of growth at 20 ppm [5]

CC1(C)CCC1NC(=O)c1nc(N(C#N)c2cc(F)cc(F)c2)cc2c1OCO2 (centres unmarked) [Compound P-7, 6-(N-cyano-3,5-difluoro-anilino)-N-(2,2-dimethylcyclobutyl)-[1,3]dioxolo[4,5-c]pyridine-4-carboxamide]
≥ 80%: inhibition of growth at 20 ppm [2] | inhibition of growth at 20 ppm [3] | inhibition of growth at 20 ppm [5]

CC1Oc2cc(Nc3cccc(F)c3)nc(C(=O)NCC(C)(C)C)c2O1 (centres unmarked) [Compound P-2, N-(2,2-dimethylpropyl)-6-(3-fluoroanilino)-2-methyl-[1,3]dioxolo[4,5-c]pyridine-4-carboxamide]
≥ 80%: inhibition of growth at 20 ppm [2] | inhibition of growth at 20 ppm [3]

CC(C)(C)CC(C)(C)NC(=O)c1nc(Nc2cc(F)cc(F)c2)cc2c1OCO2 [Compound P-17, 6-(3,5-difluoroanilino)-N-(1,1,3,3-tetramethylbutyl)-[1,3]dioxolo[4,5-c]pyridine-4-carboxamide]
≥ 80%: inhibition of growth at 20 ppm [3] | pest or weed control at 200 ppm [6] | inhibition of growth at 20 ppm [5]

CC1(C)CCC1NC(=O)c1nc(Nc2cc(F)nc(F)c2)cc2c1OCO2 (centres unmarked) [Compound P-10, 6-[(2,6-difluoro-4-pyridyl)amino]-N-(2,2-dimethylcyclobutyl)-[1,3]dioxolo[4,5-c]pyridine-4-carboxamide]
≥ 80%: inhibition of growth at 20 ppm [2] | inhibition of growth at 20 ppm [3] | inhibition of growth at 20 ppm [5]

CC1(NC(=O)c2nc(Nc3cc(F)cc(F)c3)cc3c2OCO3)CSC1 [Compound P-19, 6-(3,5-difluoroanilino)-N-(3-methylthietan-3-yl)-[1,3]dioxolo[4,5-c]pyridine-4-carboxamide]
≥ 80%: pest or weed control at 200 ppm (Alternaria solani) | inhibition of growth at 20 ppm [2] | inhibition of growth at 20 ppm [3] | pest or weed control at 200 ppm [6] | inhibition of growth at 20 ppm [4] | inhibition of growth at 20 ppm [5] | pest or weed control at 200 ppm (Pyrenophora teres)

CC1(NC(=O)c2nc(Nc3cc(F)cc(F)c3)cc3c2OCO3)CCCCC1 [Compound P-26, 6-(3,5-difluoroanilino)-N-(1-methylcyclohexyl)-[1,3]dioxolo[4,5-c]pyridine-4-carboxamide]
≥ 80%: pest or weed control at 200 ppm [1] | inhibition of growth at 20 ppm [2] | inhibition of growth at 20 ppm [3] | pest or weed control at 200 ppm [6] | inhibition of growth at 20 ppm [5] | pest or weed control at 200 ppm (Pyrenophora teres)

CC1(C)CCC1NC(=O)c1nc(Nc2cc(F)cc(F)c2)cc2c1OC(F)(F)O2 (centres unmarked) [Compound P-6, 6-(3,5-difluoroanilino)-N-(2,2-dimethylcyclobutyl)-2,2-difluoro-[1,3]dioxolo[4,5-c]pyridine-4-carboxamide]
≥ 80%: inhibition of growth at 20 ppm [2] | inhibition of growth at 20 ppm [5]

CC(C)(C)CNC(=O)c1nc(Nc2cncc(F)c2)cc2c1OCO2 [Compound P-14, N-(2,2-dimethylpropyl)-6-[(5-fluoro-3-pyridyl)amino]-[1,3]dioxolo[4,5-c]pyridine-4-carboxamide]
≥ 80%: inhibition of growth at 20 ppm [2] | inhibition of growth at 20 ppm [3] | pest or weed control at 200 ppm [6] | inhibition of growth at 20 ppm [5]
